Test results published in PMC8220105 (Computational and Structural Biotechnology Journal, 2021).

Target: p38α MAPK (Homo sapiens, UniProt Q16539)
Test: microscale thermophoresis
Format: binding

Chain of p38α MAPK (Q16539 2-360): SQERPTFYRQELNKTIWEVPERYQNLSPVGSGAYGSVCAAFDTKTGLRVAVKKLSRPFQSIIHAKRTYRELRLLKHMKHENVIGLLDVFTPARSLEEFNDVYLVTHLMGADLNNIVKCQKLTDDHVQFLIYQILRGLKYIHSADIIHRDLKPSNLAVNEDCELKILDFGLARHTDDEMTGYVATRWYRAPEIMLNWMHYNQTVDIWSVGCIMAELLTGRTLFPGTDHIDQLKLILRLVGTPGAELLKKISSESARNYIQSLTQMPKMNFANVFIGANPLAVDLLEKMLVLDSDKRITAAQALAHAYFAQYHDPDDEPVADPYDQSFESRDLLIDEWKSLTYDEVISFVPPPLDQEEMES

SMILES: COC(=O)[C@@]12OC[C@]34[C@H]([C@@H](O)[C@@H]1O)[C@@]1(C)CC(=O)C(O)=C(C)[C@@H]1C[C@H]3OC(=O)[C@H](OC(=O)CC(C)C)[C@@H]24 [bruceine A]
- Kd: 31 nM
